# Measurements as given in ChEMBL document CHEMBL4476867, “Hydroxy formamide derivatives and their use” (2016).
# pIC50: −log10 of the molar value.
# Columns and labels:
# [1] = target: T1, Bone morphogenetic protein 1 (Homo sapiens, UniProt P13497); assay: Inhibition of C-terminal FLAG-6x-His epitope tagged and N-terminal human RAGE signal sequence tagged human BMP1 (23 to 721 amino acids) expressed in CHO-E1 cells pre-incubated for 10 mins before promyostatin peptide substrate addition and measured after 60 mins using 0.5 nM BMP1 by FRET based assay; format: cell-based
# T1 sequence (P13497 whole entry): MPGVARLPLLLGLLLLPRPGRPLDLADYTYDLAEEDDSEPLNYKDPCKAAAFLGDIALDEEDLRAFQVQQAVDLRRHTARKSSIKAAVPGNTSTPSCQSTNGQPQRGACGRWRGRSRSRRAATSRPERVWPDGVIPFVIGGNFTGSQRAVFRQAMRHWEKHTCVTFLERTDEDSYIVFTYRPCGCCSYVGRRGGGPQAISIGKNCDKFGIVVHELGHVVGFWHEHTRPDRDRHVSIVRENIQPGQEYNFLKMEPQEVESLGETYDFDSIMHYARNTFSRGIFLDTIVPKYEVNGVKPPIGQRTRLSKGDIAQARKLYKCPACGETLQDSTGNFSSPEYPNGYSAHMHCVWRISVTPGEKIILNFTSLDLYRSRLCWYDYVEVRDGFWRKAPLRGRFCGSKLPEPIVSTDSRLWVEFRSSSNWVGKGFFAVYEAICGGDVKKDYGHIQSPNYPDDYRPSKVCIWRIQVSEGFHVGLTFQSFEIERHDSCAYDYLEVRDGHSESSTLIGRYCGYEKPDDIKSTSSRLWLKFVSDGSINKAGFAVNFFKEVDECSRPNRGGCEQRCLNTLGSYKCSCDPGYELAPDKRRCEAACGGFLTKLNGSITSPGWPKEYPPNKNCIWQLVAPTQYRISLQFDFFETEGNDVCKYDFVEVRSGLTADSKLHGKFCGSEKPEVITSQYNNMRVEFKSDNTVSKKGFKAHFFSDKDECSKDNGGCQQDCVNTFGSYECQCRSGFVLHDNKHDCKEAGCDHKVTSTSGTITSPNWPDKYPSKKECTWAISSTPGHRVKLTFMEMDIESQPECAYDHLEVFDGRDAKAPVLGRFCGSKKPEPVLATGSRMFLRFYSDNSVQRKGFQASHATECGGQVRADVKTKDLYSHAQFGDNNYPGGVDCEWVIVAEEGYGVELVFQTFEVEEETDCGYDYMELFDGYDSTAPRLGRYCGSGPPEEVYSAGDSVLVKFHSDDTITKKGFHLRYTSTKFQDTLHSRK
# Tolloid-like protein 2 = target: T2, Tolloid-like protein 2 (Homo sapiens, UniProt Q9Y6L7); assay: Inhibition of C-terminal Avi-6x-His epitope tagged and N-terminal human RAGE signal sequence tagged recombinant human TLL2 (26 to 1015 amino acids) expressed in CHOE1A cells incubated for 60 mins with promyostatin peptide substrate by FRET based assay; format: cell-based
# T2 sequence (Q9Y6L7 whole entry): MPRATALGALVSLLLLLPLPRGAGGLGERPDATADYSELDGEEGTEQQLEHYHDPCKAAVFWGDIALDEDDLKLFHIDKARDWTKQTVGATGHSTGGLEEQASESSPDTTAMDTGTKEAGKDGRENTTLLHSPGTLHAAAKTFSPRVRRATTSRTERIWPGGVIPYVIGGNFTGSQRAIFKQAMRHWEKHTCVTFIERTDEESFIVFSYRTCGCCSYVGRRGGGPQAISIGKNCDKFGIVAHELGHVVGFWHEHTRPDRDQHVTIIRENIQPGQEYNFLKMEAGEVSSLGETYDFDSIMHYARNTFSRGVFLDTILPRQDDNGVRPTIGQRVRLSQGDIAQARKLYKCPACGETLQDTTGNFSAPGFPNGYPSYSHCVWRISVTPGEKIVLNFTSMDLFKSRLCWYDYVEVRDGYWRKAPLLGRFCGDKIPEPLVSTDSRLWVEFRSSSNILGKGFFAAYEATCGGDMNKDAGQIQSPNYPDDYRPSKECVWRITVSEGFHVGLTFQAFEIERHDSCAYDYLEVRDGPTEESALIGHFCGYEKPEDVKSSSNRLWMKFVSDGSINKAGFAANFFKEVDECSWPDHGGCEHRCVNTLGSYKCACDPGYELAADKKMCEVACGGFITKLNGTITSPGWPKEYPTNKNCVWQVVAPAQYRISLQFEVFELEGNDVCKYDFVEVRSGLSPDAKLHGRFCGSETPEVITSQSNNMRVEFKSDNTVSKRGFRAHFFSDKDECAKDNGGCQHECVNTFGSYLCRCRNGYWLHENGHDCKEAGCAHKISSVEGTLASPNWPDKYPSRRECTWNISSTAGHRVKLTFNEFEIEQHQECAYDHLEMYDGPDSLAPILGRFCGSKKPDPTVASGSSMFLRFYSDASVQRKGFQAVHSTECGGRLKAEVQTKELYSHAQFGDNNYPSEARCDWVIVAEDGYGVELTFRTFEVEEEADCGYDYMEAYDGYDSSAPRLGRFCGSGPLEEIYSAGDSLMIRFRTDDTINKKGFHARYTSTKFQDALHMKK
# [2] = Reduction in PICP levels in human cardiac fibroblasts incubated for 24 to 48 hrs by ELISA; format: functional
# Method in brief: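 Human cardiac fibroblasts no older than passage 6 were seeded at 10,000 to 15,000 cells per well in 96-well plates and, one day later, exposed for 24 to 48 hr at 37° C to treatment in ficoll crowding EMEM with 100 μM ascorbic acid and less than 0.3% DMSO. IC50 was determined in GraphPad Prism from a log(inhibitor)-response fit of procollagen I C-terminal propeptide levels in the medium, measured by Quidel ELISA and expressed relative to untreated controls.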
# Tolloid-like protein 1 = Tolloid-like protein 1 (Homo sapiens, UniProt O43897, I156V/N221S/V284A); assay: Inhibition of recombinant human TLL1 I156V/N221S/V284A mutant expressed in CHOE1A cells pre-incubated for 10 mins before promyostatin peptide substrate addition and measured after 60 mins by FRET based assay; format: cell-based
# [3] = target: T1, Bone morphogenetic protein 1; assay: Inhibition of C-terminal FLAG-6x-His epitope tagged and N-terminal human RAGE signal sequence tagged human BMP1 (23 to 721 amino acids) expressed in CHO-E1 cells pre-incubated for 10 mins before promyostatin peptide substrate addition and measured after 30 mins using 50 nM BMP1 by FRET based assay; format: cell-based
# Chain of Tolloid-like protein 1 (O43897 148-1013 I156V/N221S/V284A limits assumed): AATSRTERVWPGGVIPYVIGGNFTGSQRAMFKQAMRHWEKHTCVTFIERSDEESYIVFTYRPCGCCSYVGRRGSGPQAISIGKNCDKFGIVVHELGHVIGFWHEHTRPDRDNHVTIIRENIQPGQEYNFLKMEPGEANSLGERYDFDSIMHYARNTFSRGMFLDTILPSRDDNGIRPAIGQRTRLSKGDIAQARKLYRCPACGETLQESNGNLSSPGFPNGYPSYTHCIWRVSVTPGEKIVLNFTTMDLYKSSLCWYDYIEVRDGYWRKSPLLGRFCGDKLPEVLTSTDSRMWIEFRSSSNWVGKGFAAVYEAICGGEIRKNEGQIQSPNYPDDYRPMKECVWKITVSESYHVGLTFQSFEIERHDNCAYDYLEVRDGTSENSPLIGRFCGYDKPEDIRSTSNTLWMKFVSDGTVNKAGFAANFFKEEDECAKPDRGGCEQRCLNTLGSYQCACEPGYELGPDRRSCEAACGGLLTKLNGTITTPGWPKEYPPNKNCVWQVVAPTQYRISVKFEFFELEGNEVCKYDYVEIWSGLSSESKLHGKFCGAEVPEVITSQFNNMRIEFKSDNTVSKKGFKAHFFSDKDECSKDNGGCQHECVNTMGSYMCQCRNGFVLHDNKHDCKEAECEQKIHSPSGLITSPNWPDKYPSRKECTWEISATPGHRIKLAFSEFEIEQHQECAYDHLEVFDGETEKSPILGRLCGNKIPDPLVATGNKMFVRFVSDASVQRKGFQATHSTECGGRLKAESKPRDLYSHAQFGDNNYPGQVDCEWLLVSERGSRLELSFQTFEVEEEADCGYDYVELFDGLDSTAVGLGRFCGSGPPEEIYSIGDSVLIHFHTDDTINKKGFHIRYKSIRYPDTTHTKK
Compound,pIC50 [1],pIC50 (Tolloid-like protein 2),pIC50 [2],pIC50 (Tolloid-like protein 1),pIC50 [3]
CCCCC[C@H](CN(O)C=O)C(=O)NCNC(=O)c1ccc(-c2ccc(C(=O)O)cc2)o1,> 6.90,> 6.10,> 5.40,> 6.40,> 6.70
CCCCC[C@H](CN(O)C=O)C(=O)NCNC(=O)c1ccc(-c2cccc(C(=O)O)c2)o1,> 6.90,> 6.10,> 5.40,> 6.40,> 6.70
CCCCC[C@@H](C(=O)NCNC(=O)c1ccc(-c2cc(OCC)cc(C(=O)NCC[N+](C)(C)C)c2)o1)[C@@H](CC)N(O)C=O,> 6.90,> 6.10,> 5.40,> 6.40,> 6.70
CCCCC[C@@H](C(=O)NCNC(=O)c1ccc(-c2cccc(C(C)(C)C(=O)O)c2)o1)[C@@H](CC)N(O)C=O,> 6.90,> 6.10,> 5.40,> 6.40,> 6.70
CCCCC[C@@H](C(=O)NCNC(=O)c1ccc(-c2cc(OCC)cc(C(F)(F)C(=O)O)c2)o1)[C@@H](CC)N(O)C=O,> 6.90,> 6.10,> 5.40,> 6.40,> 6.70
CCCCC[C@@H](C(=O)NCNC(=O)c1ccc(-c2cc(OCC)cc(P(=O)(OC)OC)c2)o1)[C@@H](CC)N(O)C=O,> 6.90,> 6.10,> 5.40,> 6.40,> 6.70
CCCCC[C@@H](C(=O)NCNC(=O)c1ccc(-c2cccc(C(=O)N[C@@H](CC(=O)O)C(=O)O)c2)o1)[C@@H](CC)N(O)C=O,> 6.90,> 6.10,> 5.40,> 6.40,> 6.70
CCCCC[C@@H](C(=O)NCNC(=O)c1ccc(-c2ccc(F)c(CC(=O)O)c2)o1)[C@@H](CC)N(O)C=O,> 6.90,> 6.10,> 5.40,> 6.40,> 6.70
CCCCC[C@H](CN(O)C=O)C(=O)NCNC(=O)c1ccc(-c2cccc(CC(=O)O)c2)o1,> 6.90,> 6.10,> 5.40,> 6.40,> 6.70
CCCCC[C@H](CN(O)C=O)C(=O)NCNC(=O)c1ccc(-c2ccc(F)c(C(=O)O)c2)o1,> 6.90,> 6.10,> 5.40,> 6.40,> 6.70
CCCCC[C@H](CN(O)C=O)C(=O)NCNC(=O)c1ccc(-c2ccc(F)c(C(=O)OC)c2)o1,> 6.90,> 6.10,> 5.40,> 6.40,> 6.70
CCCCC[C@H](CN(O)C=O)C(=O)NCNC(=O)c1ccc(-c2ccc(F)c(C(=O)O)c2F)o1,> 6.90,> 6.10,> 5.40,> 6.40,> 6.70
CCCCC[C@H](CN(O)C=O)C(=O)NCNC(=O)c1ccc(-c2cc(OC)ccc2OC)o1,> 6.90,> 6.10,> 5.40,> 6.40,> 6.70
CCCCC[C@@H](C(=O)NCNC(=O)c1ccc(-c2cc(OCC)cc(C(=O)N(CC(=O)O)CC(=O)O)c2)o1)[C@@H](CC)N(O)C=O,> 6.90,> 6.10,> 5.40,> 6.40,> 6.70
CCCCC[C@H](CN(O)C=O)C(=O)NCNC(=O)c1ccc(-c2cc(OC)cc(OC)c2)o1,> 6.90,> 6.10,> 5.40,> 6.40,> 6.70
CCCCC[C@H](CN(O)C=O)C(=O)NCNC(=O)c1ccc(-c2cccc(C(=O)O)c2F)o1,> 6.90,> 6.10,> 5.40,> 6.40,> 6.70
CCCCC[C@@H](C(=O)NCNC(=O)c1ccc(-c2ccc(C(=O)O)cc2)o1)[C@@H](CC)N(O)C=O,> 6.90,> 6.10,> 5.40,> 6.40,> 6.70
CCCCC[C@H](CN(O)C=O)C(=O)NCNC(=O)c1ccc(-c2cccc(P(=O)(O)OC)c2)o1,> 6.90,> 6.10,> 5.40,> 6.40,> 6.70
CCCCC[C@H](CN(O)C=O)C(=O)NCNC(=O)c1ccc(-c2ccc(O)c(C(=O)O)c2)o1,> 6.90,> 6.10,> 5.40,> 6.40,> 6.70
CCCCC[C@@H](C(=O)NCNC(=O)c1ccc(-c2cc(O)cc(OCC)c2)o1)[C@@H](CC)N(O)C=O,> 6.90,> 6.10,> 5.40,> 6.40,> 6.70
CCCCC[C@H](CN(O)C=O)C(=O)NCNC(=O)c1ccc(-c2cccc(C(=O)O)c2C)o1,> 6.90,> 6.10,> 5.40,> 6.40,> 6.70
CCCCC[C@H](CN(O)C=O)C(=O)NCNC(=O)c1ccc(-c2cccc(C(=O)O)c2OC)o1,> 6.90,> 6.10,> 5.40,> 6.40,> 6.70
CCCCC[C@H](CN(O)C=O)C(=O)NCNC(=O)c1ccc(-c2cccc(C(C)C(=O)O)c2)o1 (stereo not given in full),> 6.90,> 6.10,> 5.40,> 6.40,> 6.70
CCCCC[C@H](CN(O)C=O)C(=O)NCNC(=O)c1ccc(-c2ccc(N)c(C(=O)O)c2)o1,> 6.90,> 6.10,> 5.40,> 6.40,> 6.70
CCCCC[C@@H](C(=O)NCNC(=O)c1ccc(-c2cc(OCC)cc(C(=O)NC(CO)(CO)CO)c2)o1)[C@@H](CC)N(O)C=O,> 6.90,> 6.10,> 5.40,> 6.40,> 6.70
CCCCC[C@H](CN(O)C=O)C(=O)NCNC(=O)c1ccc(-c2cccc(P(C)(=O)O)c2)o1,> 6.90,> 6.10,> 5.40,> 6.40,> 6.70
CCCCC[C@@H](C(=O)NCNC(=O)c1ccc(-c2cc(OCC)cc(C(=O)N[C@H](CC(=O)O)C(=O)O)c2)o1)[C@@H](CC)N(O)C=O,> 6.90,> 6.10,> 5.40,> 6.40,> 6.70
